Results published in patent US5294634A, “Osteogenesis promoter” (Zeria Pharmaceutical Co., Ltd., priority 1989, dated 1994).

Legend:
femoral diaphysis [1] = assay: Calcium content in femoral diaphysis of young rats (Test Example 1, osteogenesis-stimulating action); type: in vivo, young Wistar rats; conditions: oral, 5.5 mg/kg body weight in terms of zinc, once a day for 3 days; 24 h after last dose; average ± standard error; control 386.5 ± 6.5
Protocol: (§1) The osteogenesis-stimulating action of the zinc complex of L-carnosine was confirmed by the calcium content, zinc content, alkaline phosphatase activity and DNA content in the femoral diaphysis of young rats used. Zinc sulfate was used as a comparative compound.
(§2) Young Wistar rats were used regarding five rats as one group. […] A control group was orally given with a solvent alone.
(§3) The agent to be tested was administered for 3 days once a day in an amount corresponding to 5.5 mg/kg body weight in terms of zinc. Upon elapsed time of 24 hours after the last dose, the rats were sacrificed and the femoral regions were taken out of each rat under light ether anesthesia. Soft tissues and bone marrow were removed from the femoral region. The diaphysis and epiphysis (including metaphyseal tissues) were separated from each other to form fragments of the femoral diaphysis.
The femoral diaphysis tissue was ashed for 24 hours at 640° C. to weigh the resulting ash. Thereafter, the ash was dissolved in 6N hydrochloric acid to measure its calcium content by atomic absorption spectrophotometry. The calcium content in the bone was expressed in terms of mg per g of the bone ash.
(§4) The data were shown as average value±standard error. The significant difference was determined using the Student's t-test.

femoral diaphysis [2] = assay: Osteogenesis-stimulating action (overall, Test Example 1); type: in vivo, young Wistar rats; conditions: for change in zinc content, calcium content and alkaline phosphatase activity in the femoral diaphysis: oral, 5.5 mg/kg body weight in terms of zinc, 3 days, in words
Protocol: as §1, §2, §3

femoral diaphysis [3] = assay: Zinc content in femoral diaphysis of young rats (Test Example 1); type: in vivo, young Wistar rats; conditions: oral, 5.5 mg/kg body weight in terms of zinc, once a day for 3 days; 24 h after last dose; average ± standard error; control 156.9 ± 7.7
Protocol: as §1, §2, §3
A fragment of the femoral diaphysis was digested with nitric acid [Biochem. Pharmacol., 36, 4007-4012 (1986)] to measure the content of zinc by atomic adsorption spectrophotometry. The zinc content was expressed in terms of micrograms of zinc per gram of a wet bone.
as §4

rats = assay: Oral acute toxicity (Test Example 2); type: in vivo, Wister male and female rats; conditions: 10 g/kg body weight, observation for 7 days, male and female rats
Description: Using Wister male and female rats of 150-200 g by weight regarding 10 rats as respective groups, the crystalline zinc complex of L-carnosine in a dose of 10 g/kg body weight) was orally administered to each rat.

femoral diaphysis [4] = assay: DNA content in femoral diaphysis of young rats (Test Example 1); type: in vivo, young Wistar rats; conditions: oral, 5.5 mg/kg body weight in terms of zinc; for change in DNA content in the femoral diaphysis: 3 days, in words; for DNA: once a day for 3 days, 24 h after last dose, average ± standard error, control 1.450 ± 0.020
Protocol: as §1, §2, §3
A small fragment of the fempral diaphysis was subjected to homogenization for bone tissue, followed by its shaking together with 4.0 ml of 0.1N sodium hydroxide solution cooled with ice. After the thus-treated homogenate was subjected to alkali extraction, the extract was centrifuged at 10,000×g for 5 minutes. The thus-obtained supernatant liquid was used for the measurement in accordance with the Ceriotti method [J. Biol. Chem., 214, 39-77 (1955)]. The DNA content was expressed in terms of the total DNA content (mg) per gram of a wet bone.
as §4

alkaline phosphatase = assay: Alkaline phosphatase activity in femoral diaphysis of young rats (Test Example 1); type: in vivo, young Wistar rats; conditions: oral, 5.5 mg/kg body weight in terms of zinc, once a day for 3 days; 24 h after last dose; average ± standard error; control 1599.6 ± 74.5
Protocol: as §1, §2
The agent to be tested was administered for 3 days once a day in an amount corresponding to 5.5 mg/kg body weight in terms of zinc. Upon elapsed time of 24 hours after the last dose, the rats were sacrificed and the femoral regions were taken out of each rat under light ether anesthesia. […]
The femoral diaphysis tissue was immersed into 3 ml of ice-cold 6.5 mM barbital buffer solution (pH: 7.4) and then cut into pieces to uniformly grind them by a Potter-Blvehjem homogenizer equipped with a Teflon pestle. […] The alkaline phosphatase activity was determined in accordance with the Wallter-Schutt procedure [Bergmeyer HU (ed), Methods of enzymatic analysis, Vol. 1-2, Academic Press, New York, pp. 856-860 (1965)]. […] The concentration of protein was measured in accordance with the method by Lowry et al. [J. Biol. Chem., 193, 265-273 (1951)].
as §4

[5] = in vivo; cited from earlier work

| Compound | Calcium content (femoral diaphysis [1]) [mg/g bone ash] | change in zinc content, calcium content and alkaline phosphatase activity in the femoral diaphysis (femoral diaphysis [2]) | osteogenesis-stimulating action compared with zinc sulfate (femoral diaphysis [2]; same amounts (5.5 mg/kg body weight) in terms of zinc) | Zinc (femoral diaphysis [3]) [μg/g wet bone] | dead cases (rats) | change in DNA content in the femoral diaphysis (femoral diaphysis [4]) | DNA (femoral diaphysis [4]) [mg/g wet bone] | Alkaline phosphatase (alkaline phosphatase) [μmol/min/mg protein] | side effects [5] |
| --- | --- | --- | --- | --- | --- | --- | --- | --- | --- |
| NCCC(=O)[N-][C@@H](Cc1c[nH]cn1)C(=O)[O-].[Zn+2] [L-carnosine zinc complex, Crystalline Zinc Complex of L-Carnosine] | 458.1 ± 8.7 | increased | stronger osteogenesis-stimulating action than zinc sulfate | 235.0 ± 9.1 | dead cases were not recognized | increased | 2.931 ± 0.100 | 1963.4 ± 118.3 |  |
| O=S(=O)([O-])[O-].[Zn+2] [Zinc sulfate, zinc sulfate, reference compound] | 405.8 ± 4.5 | increased |  | 206.7 ± 9.8 |  | a significant change was not produced | 1.510 ± 0.050 | 2580.5 ± 80.3 | vomiting, nausea and diarrhea |
